Test results from paper PMC11380953, “Multivalent, calcium-independent binding of surfactant protein A and D to sulfated glycosaminoglycans of the alveolar epithelial glycocalyx” (American Journal of Physiology - Lung Cellular and …, 2024).

What follows are substances tested against T1, hSP-A (Homo sapiens, UniProt Q8IWL1+Q8IWL2) (assay: Binding inhibition assay (hSP-A binding to coated mannan)). Conditions: GAGs 15 µM to 30 nM, 5 mM CaCl2 (Fig. 1G).
T1 construct: Human PAP patient, BAL isolated; from tissue; host or cells: bronchoalveolar lavage fluid of a patient with pulmonary alveolar proteinosis
Protocol: Following previously described assays ([41], [42]), 96-well plates (83.3924.005, Sarstaedt AG, Nümbrecht, Germany) were coated with 70 ng/well (total volume of 100 µL/well) of mannan (M7504, Sigma-Aldrich, St. Louis) dissolved in 0.1 M NaHCO3 buffer (pH 9.6) overnight at 4°C. After removal of the coating solution, wells were blocked with 100 µL of 5 mM Tris with 2% BSA (Serva, Heidelberg, Germany) at room temperature for 2 h. Plates were washed three times with 100 µL/well washing buffer (5 mM Tris, 0.9% NaCl, 0.05% Tween-20, and 5 mM CaCl2). Next, different concentrations of HA, HS, or CS ranging from 15 µM to 30 nM and hSP-A at 14 ng/well were added to washing buffer with 0.1% BSA. The plate was incubated for 2 h at room temperature to allow the protein to bind to either mannan or GAGs. After subsequent washing, as stated before, mannan-bound hSP-A was immunodetected by incubation with a specific anti-SP-A antibody (ab190087, Abcam, Cambridge, UK) at a 0.5 µg/mL concentration for 2 h at room temperature in washing buffer. After washing the excess of antibody, a secondary antibody conjugated with HRP (horseradish peroxidase) anti-goat (Abcam, ab 6885, Cambridge, UK) was added at 2 µg/mL for 1 h at room temperature. After washing, the color reaction was developed by adding 50 µL of TMB liquid substrate (T0440, Sigma-Aldrich, St. Louis). After 30 min, the reaction was stopped by adding 50 µL of Stop Reagent (S5814, Sigma-Aldrich, St. Louis) and the plate was read at 450 nm in a plate reader (FLUOstar Omega, BMG Labtech, Ortenberg, Germany).
The data of the binding inhibition assay were analyzed in GraphPad Prism 9.5.1 using the “normalize” function and fitting to the nonlinear regression dose-response inhibition. […] The fluorescence values from the collectin-based binding assay were normalized using the same “normalize” function in GraphPad, and the statistical test used was the “non-parametric Kruskal-Wallis” test. The statistical test used for the DMMB assay for GAG quantification was also the “non-parametric Kruskal-Wallis” test.

T1 sequence (Q8IWL2 21-248): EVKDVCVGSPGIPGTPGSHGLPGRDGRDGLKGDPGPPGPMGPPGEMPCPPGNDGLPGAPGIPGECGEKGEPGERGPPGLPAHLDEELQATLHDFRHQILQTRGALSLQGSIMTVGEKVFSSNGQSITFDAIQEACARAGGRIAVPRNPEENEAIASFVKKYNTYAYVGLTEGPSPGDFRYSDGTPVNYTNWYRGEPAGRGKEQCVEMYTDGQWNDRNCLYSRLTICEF
T1 sequence (Q8IWL1 21-248): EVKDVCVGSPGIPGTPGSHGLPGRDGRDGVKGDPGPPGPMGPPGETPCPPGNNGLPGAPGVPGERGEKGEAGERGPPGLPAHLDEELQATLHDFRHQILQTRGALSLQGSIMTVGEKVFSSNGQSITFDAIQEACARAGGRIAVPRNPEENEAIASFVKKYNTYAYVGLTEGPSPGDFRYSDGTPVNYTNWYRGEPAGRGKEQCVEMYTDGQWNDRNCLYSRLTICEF

| Substance | hSP-A binding inhibition to mannan |
| --- | --- |
| chondroitin sulfate sodium salt [CS] | in the µM range |
| hyaluronic acid sodium salt [HA] | in the µM range |
| heparan sulfate sodium [HS] | in the µM range |
